Data from article PMC3581696 (The Journal of General Physiology, 2013).

Experiments:
mEAG1 channel = biological target: T1, mEAG1 channel (Mus musculus, UniProt Q60603); assay: Inside-out patch-clamp of wild-type mEAG1 channels expressed in Xenopus oocytes; assay type: cell-based; conditions: 50 µM
T1 sequence (Q60603 1-989): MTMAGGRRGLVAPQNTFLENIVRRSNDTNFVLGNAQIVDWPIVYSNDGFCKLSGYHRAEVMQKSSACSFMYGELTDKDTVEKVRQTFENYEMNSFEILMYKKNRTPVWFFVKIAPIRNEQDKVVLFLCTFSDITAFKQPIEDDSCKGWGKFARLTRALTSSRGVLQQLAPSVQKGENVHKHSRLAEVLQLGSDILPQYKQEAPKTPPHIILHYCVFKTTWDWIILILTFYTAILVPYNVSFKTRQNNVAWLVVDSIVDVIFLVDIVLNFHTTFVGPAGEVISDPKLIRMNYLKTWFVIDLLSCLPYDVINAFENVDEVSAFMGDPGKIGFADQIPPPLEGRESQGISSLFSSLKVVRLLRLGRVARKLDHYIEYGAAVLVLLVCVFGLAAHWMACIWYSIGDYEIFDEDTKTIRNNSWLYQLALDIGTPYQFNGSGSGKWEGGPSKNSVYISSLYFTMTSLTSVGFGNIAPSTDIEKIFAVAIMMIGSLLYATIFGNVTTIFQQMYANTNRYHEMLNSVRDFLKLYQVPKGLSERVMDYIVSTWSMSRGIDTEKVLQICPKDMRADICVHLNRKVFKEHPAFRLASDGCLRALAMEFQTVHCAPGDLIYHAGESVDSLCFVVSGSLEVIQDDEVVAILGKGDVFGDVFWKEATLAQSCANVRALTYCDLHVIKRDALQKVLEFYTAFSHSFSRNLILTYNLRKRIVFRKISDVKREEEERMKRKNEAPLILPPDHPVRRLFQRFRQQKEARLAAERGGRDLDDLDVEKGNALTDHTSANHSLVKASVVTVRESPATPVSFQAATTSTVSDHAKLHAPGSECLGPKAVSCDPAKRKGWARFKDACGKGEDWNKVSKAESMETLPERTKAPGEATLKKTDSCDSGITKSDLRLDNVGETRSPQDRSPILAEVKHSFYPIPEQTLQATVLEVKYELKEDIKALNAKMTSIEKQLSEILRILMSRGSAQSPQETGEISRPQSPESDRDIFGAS

[1] = Solubility limit in recording / aqueous solutions; assay type: physicochemical; conditions: aqueous solutions
[2] = biological target: T2, purified C-linker/CNBHD of mEAG1 channels (Mus musculus, UniProt Q60603); assay: Tryptophan-to-flavonoid FRET binding assay; conditions: 100 µM flavonoid; 4 µM protein
T2 sequence (Q60603 505-702): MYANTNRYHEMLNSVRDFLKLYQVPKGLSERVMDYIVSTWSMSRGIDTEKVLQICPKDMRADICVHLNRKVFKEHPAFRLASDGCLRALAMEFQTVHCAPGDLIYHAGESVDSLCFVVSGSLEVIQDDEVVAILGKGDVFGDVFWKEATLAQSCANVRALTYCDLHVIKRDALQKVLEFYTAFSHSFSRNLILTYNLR

effect on steady-state or kinetic properties of mEAG1 channel gating (mEAG1 channel) | solubility [1] [µM] | decrease of peak fluorescence intensity of the C-linker/CNBHD at 341 nm [2] [%] | SMILES
did not alter |  |  | COc1ccc(-c2cc(=O)c3c(O)cc(O)cc3o2)cc1 [Acacetin, 5,7-dihydroxy-2-(4-methoxyphenyl)chromen-4-one]
did not alter |  |  | Oc1cc(O)c2c(c1)O[C@H](c1ccc(O)c(O)c1)[C@@H](O)C2 [Catechin, (2R,3S)-2-(3,4-dihydroxyphenyl)-3,4-dihydro-2H-chromene-3,5,7-triol]
 | ≤ 150 | 51 | O=c1c(O)c(-c2ccc(O)c(O)c2)oc2cc(O)cc(O)c12 [Quercetin, 2-(3,4-dihydroxyphenyl)-3,5,7-trihydroxy-4H-chromen-4-one]

SMILES | effect on steady-state or kinetic properties of mEAG1 channel gating (mEAG1 channel) | solubility [1] [µM] | decrease of peak fluorescence intensity of the C-linker/CNBHD at 341 nm [2] [%]
C[C@]12CC[C@@H]3c4ccc(O)cc4CC[C@H]3[C@@H]1CC[C@@H]2O [Estradiol, (17β)-estra-1,3,5(10)-triene-3,17-diol] | did not shift the voltage dependence or slow the deactivation |  | 
